From patent publication US7632829B2, “Diazepan derivatives” (Hoffmann-La Roche Inc., priority 2006, dated 2009)

Target: T1, human chemokine receptor 2 isoform B (Homo sapiens, UniProt P41597)
T1 construct: host or cells: CHOK1-CCR2B-A5 (CHO-K1)
T1 sequence (P41597 1-360 isoform P41597-2): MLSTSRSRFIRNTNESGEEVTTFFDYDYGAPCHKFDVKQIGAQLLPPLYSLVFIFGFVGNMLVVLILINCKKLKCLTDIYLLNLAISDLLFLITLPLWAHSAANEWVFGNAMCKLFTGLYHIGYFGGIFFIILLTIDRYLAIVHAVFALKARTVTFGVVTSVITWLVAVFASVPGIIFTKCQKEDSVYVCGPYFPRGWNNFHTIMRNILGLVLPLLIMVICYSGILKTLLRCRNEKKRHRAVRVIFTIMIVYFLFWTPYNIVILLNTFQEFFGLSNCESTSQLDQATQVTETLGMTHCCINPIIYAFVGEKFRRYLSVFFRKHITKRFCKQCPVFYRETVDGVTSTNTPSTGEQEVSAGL
Experiment: Calcium mobilization assay (FLIPR, CHOK1-CCR2B-A5 cells, 20 nM MCP-1)
Type: cell-based
Conditions: Ca mobilisation assay, CCR2, antagonist activity vs 20 nM MCP-1
Experimental: CHOK1-CCR2B-A5 cells (from Euroscreen) stably overexpressing the human chemokine receptor 2 isoform B were cultured in Nutrient Hams F12 medium supplemented with 5% FBS, 100 U/ml penicillin, 100 μg/ml streptomycin, 400 μg/ml G418 and 5 μg/ml puromycin.
For the assay cells were grown overnight in 384-well black clear flat bottom polystyrene plates (Costar) at 37° C. at 5% CO2. After washing with DMEM, 20 mM Hepes, 2.5 mM probenecid, 0.1% BSA (DMEM assay buffer) cells were loaded with 4 μM Fluo-4 in the same DMEM assay buffer for 2 hours at 30° C. Excess dye was removed and cells were washed with DMEM assay buffer. 384-well compound plates were prepared with DMEM assay buffer/0.5% DMSO with or without various concentrations of test compounds. Usually compounds were tested for agonist and antagonist activity.
Test compounds were added to the assay plate and agonist activity was monitored as fluorescence for 80 seconds with a FLIPR (488 nm excitation; 510-570 nm emission; Molecular Devices). After 20-30 min. of incubation at 30° C., 20 nM MCP-1 (R&D; Roche) was added and fluorescence was monitored again for 80 seconds. Increases in intracellular calcium are reported as maximum fluorescence after agonist exposure minus basal fluorescence before exposure. Antagonist activity is indicated as inhibitor concentration required for 50% inhibition of specific calcium increases.

Row | Compound | IC50
1 | 1-[(E)-3-(3,4-Dichloro-phenyl)-acryloyl]-4-[3-(4-methyl-piperazin-1-yl)-propyl]-[1,4]diazepan-5-one [Example 75] | 267 nM
2 | 4-(3-{4-[(E)-3-(3,4-Dichloro-phenyl)-acryloyl]-7-oxo-[1,4]diazepan-1-yl}-propylamino)-cyclohexanecarboxylic acid amide [Example 77] | 326 nM
3 | 4-(3-{4-[(E)-3-(3,4-Dichloro-phenyl)-acryloyl]-7-oxo-[1,4]diazepan-1-yl}-propylamino)-cyclohexanecarboxylic acid ethyl ester [Example 67] | 241 nM
4 | 4-[3-(4-Methyl-4-hydroxy-piperidin-1-yl)-propyl]-1-[(E)-3-(3,4-dichloro-phenyl)-acryloyl]-[1,4]diazepan-5-one [Example 76] | 219 nM
5 | 4-[3-(Cyclohexy-methyl-amino)-ethyl]-1-[(E)-3-(3,4-dichloro-phenyl)-acryloyl]-[1,4]diazepan-5-one [Example 111] | 335 nM
6 | CC1CCC(N(C)CCCN2CCN(C(=O)/C=C/c3ccc(Cl)c(Cl)c3)CCC2=O)CC1 (mixture of isomers) [Example 54, cis/trans-1-[(E)-3-(3,4-Dichloro-phenyl)-acryloyl]-4-{3-[methyl-(4-methyl-cyclohexyl)-amino]-propyl}-[1,4]diazepan-5-one] | 747 nM
7 | CC1CCCCC1NCCCN1CCN(C(=O)C=Cc2ccc(Cl)c(Cl)c2)CCC1=O (mixture of isomers) [Example 64, cis/trans-1-[(E)-3-(3,4-Dichloro-phenyl)-acryloyl]-4-[3-(2-methyl-cyclohexylamino)-propyl]-[1,4]diazepan-5-one] | 391 nM
8 | CC1CCCCC1NCCN1CCN(C(=O)C=Cc2ccc(Cl)c(Cl)c2)CCC1=O (mixture of isomers) [Example 104, cis/trans-1-[(E)-3-(3,4-Dichloro-phenyl)-acryloyl]-4-[3-(2-methyl-cyclohexylamino)-ethyl]-[1,4]diazepan-5-one] | 598 nM
9 | CC1CCC(N(C)CCN2CCN(C(=O)/C=C/c3ccc(Cl)c(Cl)c3)CCC2=O)CC1 (mixture of isomers) [Example 124, cis/trans-1-[(E)-3-(3,4-Dichloro-phenyl)-acryloyl]-4-{3-[methyl-(4-methyl-cyclohexyl)-amino]-ethyl}-[1,4]diazepan-5-one] | 667 nM
10 | CC1CCC(NCCN2CCN(C(=O)/C=C/c3ccc(Cl)c(Cl)c3)CCC2=O)CC1 (mixture of isomers) [Example 138, cis/trans-1-[(E)-3-(3,4-Dichloro-phenyl)-acryloyl]-4-{3-[(4-methyl-cyclohexyl)-amino]-ethyl}-[1,4]diazepan-5-one] | 1260 nM
11 | CC1C(O)CCCN1CCCN1CCN(C(=O)C=Cc2ccc(F)c(Cl)c2)CCC1=O (mixture of isomers) [Example 208, (rac,trans)-1-[(E)-3-(3-Chloro-4-fluoro-phenyl)-acryloyl]-4-[3-(3-hydroxy-2-methyl-piperidin-1-yl)-propyl]-[1,4]diazepan-5-one] | 780 nM
12 | CC1C(O)CCCN1CCCN1CCN(C(=O)C=Cc2ccc(F)c(Cl)c2)CCC1=O (mixture of isomers) [Example 209, (rac,cis)-1-[(E)-3-(3-Chloro-4-fluoro-phenyl)-acryloyl]-4-[3-(3-hydroxy-2-methyl-piperidin-1-yl)-propyl]-[1,4]diazepan-5-one] | 1390 nM
13 | O=C(C=Cc1ccc(F)c(Cl)c1)N1CCC(=O)N(CCCN2CCC(F)C(O)C2)CC1 (mixture of isomers) [Example 213, (rac,trans)-1-[(E)-3-(3-Chloro-4-fluoro-phenyl)-acryloyl]-4-[3-(4-fluoro-3-hydroxy-piperidin-1-yl)-propyl]-[1,4]diazepan-5-one] | 421 nM
14 | O=C(C=Cc1ccc(F)c(Cl)c1)N1CCC(=O)N(CCCN2CCC(O)C(F)C2)CC1 (mixture of isomers) [Example 214, (rac,trans)-1-[(E)-3-(3-Chloro-4-fluoro-phenyl)-acryloyl]-4-[3-(3-fluoro-4-hydroxy-piperidin-1-yl)-propyl]-[1,4]diazepan-5-one] | 592 nM
15 | CC1CC(O)CN(CCCN2CCN(C(=O)C=Cc3ccc(F)c(Cl)c3)CCC2=O)C1 (mixture of isomers) [Example 224, (rac,cis)-1-[(E)-3-(3-Chloro-4-fluoro-phenyl)-acryloyl]-4-[3-(3-hydroxy-5-methyl-piperidin-1-yl)-propyl]-[1,4]diazepan-5-one] | 14 nM
16 | CC1C(O)CCCN1CCCN1CCN(C(=O)C=Cc2ccc(Cl)c(Cl)c2)CCC1=O (mixture of isomers) [Example 225, (rac,trans)-1-[(E)-3-(3,4-Dichlorophenyl)-acryloyl]-4-[3-(3-hydroxy-2-methyl-piperidin-1-yl)-propyl]-[1,4]diazepan-5-one] | 243 nM
17 | O=C(C=Cc1ccc(Cl)c(Cl)c1)N1CCC(=O)N(CCCN2CCC(O)C(F)C2)CC1 (mixture of isomers) [Example 231, (rac,trans)-1-[(E)-3-(3,4-Dichloro-phenyl)-acryloyl]-4-[3-(3-fluoro-4-hydroxy-piperidin-1-yl)-propyl]-[1,4]diazepan-5-one] | 218 nM
18 | O=C(C=Cc1ccc(Cl)c(Cl)c1)N1CCC(=O)N(CCCN2CCC(CO)C(O)C2)CC1 (mixture of isomers) [Example 266, (rac,cis)-1-[(E)-3-(3,4-Dichloro-phenyl)-acryloyl]-4-[3-(3-hydroxy-4-hydroxymethyl-piperidin-1-yl)-propyl]-[1,4]diazepan-5-one] | 77 nM
19 | COC1COCCC1NCCCN1CCN(C(=O)C=Cc2ccc(Cl)c(Cl)c2)CCC1=O (mixture of isomers) [Example 275, (rac,cis)-1-[(E)-3-(3,4-Dichloro-phenyl)-acryloyl]-4-[3-(3-methoxy-tetrahydro-pyran-4-ylamino)-propyl]-[1,4]diazepan-5-one] | 1090 nM
20 | CC1CC(O)CN(CCCN2CCN(C(=O)C=Cc3ccc(Cl)c(Cl)c3)CCC2=O)C1 (mixture of isomers) [Example 279, (rac,cis)-1-[(E)-3-(3,4-Dichloro-phenyl)-acryloyl]-4-[3-(3-hydroxy-5-methyl-piperidin-1-yl)-propyl]-[1,4]diazepan-5-one] | 5 nM
21 | O=C(/C=C/c1ccc(Cl)c(Cl)c1)N1CCC(=O)N(C[C@@H](O)CN2CC[C@H](CO)[C@H](O)C2)CC1 (mixture of isomers) [Example 328, 1-[(E)-3-(3,4-Dichloro-phenyl)-acryloyl]-4-[(S)-2-hydroxy-3-(cis-3-hydroxy-4-hydroxymethyl-piperidin-1-yl)-propyl]-[1,4]diazepan-5-one] | 28 nM
22 | COC[C@H]1CCN(C[C@H](O)CN2CCN(C(=O)/C=C/c3ccc(Cl)c(Cl)c3)CCC2=O)C[C@H]1O (mixture of isomers) [Example 329, 1-[(E)-3-(3,4-Dichloro-phenyl)-acryloyl]-4-[(S)-2-hydroxy-3-(cis-3-hydroxy-4-methoxymethyl-piperidin-1-yl)-propyl]-[1,4]diazepan-5-one] | 137 nM
23 | O=C(/C=C/c1ccc(Cl)c(Cl)c1)N1CCC(=O)N(C[C@@H](O)CN2CC[C@@H](CO)[C@H](O)C2)CC1 (mixture of isomers) [Example 333, 1-[(E)-3-(3,4-Dichloro-phenyl)-acryloyl]-4-[(S)-2-hydroxy-3-(trans-3-hydroxy-4-hydroxymethyl-piperidin-1-yl)-propyl]-[1,4]diazepan-5-one] | 301 nM
24 | C[C@@H]1C[C@H](O)CN(C[C@H](O)CN2CCN(C(=O)/C=C/c3ccc(Cl)c(Cl)c3)CCC2=O)C1 (mixture of isomers) [Example 335, 1-[(E)-3-(3,4-Dichloro-phenyl)-acryloyl]-4-[(S)-2-hydroxy-3-(cis-3-hydroxy-5-methyl-piperidin-1-yl)-propyl]-[1,4]diazepan-5-one] | 13 nM
25 | O=C(/C=C/c1ccc(F)c(Cl)c1)N1CCC(=O)N(C[C@@H](O)CN2CC[C@H](CO)[C@H](O)C2)CC1 (mixture of isomers) [Example 337, 1-[(E)-3-(3-Chloro-4-fluoro-phenyl)-acryloyl]-4-[(S)-2-hydroxy-3-(cis-3-hydroxy-4-hydroxymethyl-piperidin-1-yl)-propyl]-[1,4]diazepan-5-one] | 71 nM
26 | COC[C@H]1CCN(C[C@H](O)CN2CCN(C(=O)/C=C/c3ccc(F)c(Cl)c3)CCC2=O)C[C@H]1O (mixture of isomers) [Example 338, 1-[(E)-3-(3-Chloro-4-fluoro-phenyl)-acryloyl]-4-[(S)-2-hydroxy-3-(cis-3-hydroxy-4-methoxymethyl-piperidin-1-yl)-propyl]-[1,4]diazepan-5-one] | 553 nM
